Results as given in ChEMBL document CHEMBL1124596, “Introduction of a putative dopaminergic prodrug moiety into a 6,7-substitution pattern characteristic of certain 2-aminotetralin dopaminergic agonists” (1989).

Each compound was assayed on Felis catus (assay: Inhibition of cat cardiac response to cardioaccelerator nerve stimulation, when administered intravenously). Conditions: iv, read-out: ID50 (the source's name).
Assay type: functional

Going from CCCN(CCC)C1CCc2cc(C)c(O)cc2C1 (centres undefined) to CCCN(CCC)C1CCc2cc(O)c(C)cc2C1 (centres undefined), the ED50 rises from 0.54 µmol/kg to 1.75 µmol/kg.

Compared with CCCN(CCC)C1CCc2c(ccc(C)c2O)C1 (centres undefined), CN1CCc2cccc3c2[C@H]1Cc1ccc(O)c(O)c1-3 [APOMORPHINE] is lower in ED50: 0.25 µmol/kg for the first, 0.035 µmol/kg for the second.
